Assay results from publication PMC6468293, “Double autoinhibition mechanism of signal transduction ATPases with numerous domains (STAND) with a tetratricopeptide repeat sensor” (Nucleic Acids Research, 2019).
Substitutions are numbered along the chain they refer to. Names and notes keep the numbering of the source.

Legend:
[1] = molecular target: T1, PH0952ΔN (Pyrococcus horikoshii, UniProt O58663); assay: X-ray crystal structure; details: 3.4 Å; ADP present in purification buffer; nucleotide-binding site of the NOD
T1 construct: gene PH0952; NBD 102-262, HD 263-316, WHD 317-393, arm 394-496, TPR sensor 497-748; from E. coli Rosetta (DE3), intein tag cleaved; monomeric resting form

[2] = molecular target: T2, MalT (Escherichia coli, UniProt P06993); assay: analytical size-exclusion chromatography (multimerization) and limited proteolysis; assay type: biochemical; details: with ATP; inducer; pH 8.0
T2 construct: full-length, His6-tagged (pOM206, pET24a(+) derivative), purified from E. coli BL21 ΔmalT

[3] = molecular target: T3, MalT (Escherichia coli, UniProt P06993, M96T/R171E); assay: limited proteolysis (proteinase K); assay type: biochemical; details: 22 mM maltotriose; 0.44 mM ATP or ADP; pH 8.0, 25 °C
T3 construct: full-length, His6-tagged (pOM206, pET24a(+) derivative), purified from E. coli BL21 ΔmalT

[4] = molecular target: T4, MalT (Escherichia coli, UniProt P06993, M96C); assay: analytical size-exclusion chromatography (multimerization); assay type: biochemical; details: reducing conditions
T4 construct: full-length, His6-tagged (pOM206, pET24a(+) derivative), purified from E. coli BL21 ΔmalT

[5] = molecular target: T5, MalT (Escherichia coli, UniProt P06993, R171E); assay: limited proteolysis (proteinase K); assay type: biochemical; details: 22 mM maltotriose; 0.44 mM ATP or ADP; pH 8.0, 25 °C
T5 construct: full-length, His6-tagged (pOM206, pET24a(+) derivative), purified from E. coli BL21 ΔmalT

[6] = molecular target: T6, MalT (Escherichia coli, UniProt P06993, H562C); assay: analytical size-exclusion chromatography (multimerization); assay type: biochemical; details: reducing conditions
T6 construct: full-length, His6-tagged (pOM206, pET24a(+) derivative), purified from E. coli BL21 ΔmalT

[7] = molecular target: the molecule itself; assay: SEC; analytical Superdex 200 PC3.2/30, room temperature; reducing conditions; with the inducer maltotriose (Supplementary Figure S9)
[8] = molecular target: the molecule itself; assay: SEC; analytical Superdex 200, room temperature; Tris-HCl 50 mM pH 8.0, 10% sucrose, 0.033 M K3 citrate, 10 mM Mg acetate, 0.1 mM EDTA, 1 mM DTT, 0.1 mM ADP; no maltotriose; high protein concentration (54 μM)

T1 sequence (O58663 entry or part of it, stated change not applied): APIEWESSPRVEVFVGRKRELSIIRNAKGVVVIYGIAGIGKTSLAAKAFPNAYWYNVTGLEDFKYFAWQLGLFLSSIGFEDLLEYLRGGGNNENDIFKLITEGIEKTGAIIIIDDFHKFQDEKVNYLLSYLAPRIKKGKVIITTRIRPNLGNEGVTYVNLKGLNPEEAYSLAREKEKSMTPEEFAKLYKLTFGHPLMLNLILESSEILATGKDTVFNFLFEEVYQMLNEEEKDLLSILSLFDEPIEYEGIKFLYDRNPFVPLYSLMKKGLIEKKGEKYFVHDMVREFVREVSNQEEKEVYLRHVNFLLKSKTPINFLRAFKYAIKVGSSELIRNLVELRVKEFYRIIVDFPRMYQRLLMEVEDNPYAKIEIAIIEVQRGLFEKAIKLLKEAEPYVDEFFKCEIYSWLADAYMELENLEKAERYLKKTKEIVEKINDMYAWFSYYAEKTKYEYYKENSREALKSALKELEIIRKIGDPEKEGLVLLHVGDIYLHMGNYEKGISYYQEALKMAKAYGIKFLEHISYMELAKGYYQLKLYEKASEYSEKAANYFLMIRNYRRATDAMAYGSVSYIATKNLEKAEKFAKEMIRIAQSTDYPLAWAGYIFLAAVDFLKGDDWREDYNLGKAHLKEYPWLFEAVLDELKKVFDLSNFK
T3 sequence (P06993 whole entry M96T/R171E): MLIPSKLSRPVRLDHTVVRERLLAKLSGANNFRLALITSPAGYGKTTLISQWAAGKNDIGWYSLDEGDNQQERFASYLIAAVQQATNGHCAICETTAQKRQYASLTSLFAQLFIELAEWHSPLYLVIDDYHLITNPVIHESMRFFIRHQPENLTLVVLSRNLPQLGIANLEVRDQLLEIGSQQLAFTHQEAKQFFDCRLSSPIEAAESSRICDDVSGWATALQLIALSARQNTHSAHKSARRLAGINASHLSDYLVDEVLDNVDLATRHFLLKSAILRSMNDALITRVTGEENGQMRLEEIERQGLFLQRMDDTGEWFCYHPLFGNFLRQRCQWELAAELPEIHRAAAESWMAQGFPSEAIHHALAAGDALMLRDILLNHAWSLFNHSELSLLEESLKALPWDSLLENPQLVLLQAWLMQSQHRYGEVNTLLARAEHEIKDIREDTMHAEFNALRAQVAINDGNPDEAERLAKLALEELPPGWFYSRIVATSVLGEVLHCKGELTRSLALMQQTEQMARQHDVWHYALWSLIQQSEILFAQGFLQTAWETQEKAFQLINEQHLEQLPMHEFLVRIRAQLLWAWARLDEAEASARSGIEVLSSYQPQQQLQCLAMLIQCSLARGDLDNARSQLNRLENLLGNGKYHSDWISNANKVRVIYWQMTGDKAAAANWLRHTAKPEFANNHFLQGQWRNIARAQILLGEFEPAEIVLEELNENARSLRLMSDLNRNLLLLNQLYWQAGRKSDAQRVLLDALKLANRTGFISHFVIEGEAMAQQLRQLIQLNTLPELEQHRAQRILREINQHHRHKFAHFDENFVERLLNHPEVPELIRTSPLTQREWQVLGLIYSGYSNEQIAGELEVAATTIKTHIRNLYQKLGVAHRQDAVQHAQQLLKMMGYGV
T6 sequence (P06993 whole entry H562C): as the sequence (P06993 whole entry M96T/R171E) above, with T96M, E171R, H562C counted along it
T4 sequence (P06993 whole entry M96C): as the sequence (P06993 whole entry M96T/R171E) above, with T96C, E171R counted along it
T5 sequence (P06993 whole entry R171E): as the sequence (P06993 whole entry M96T/R171E) above, with T96M counted along it

Question: With Nc1ncnc2c1ncn2[C@@H]1O[C@H](COP(=O)(O)OP(=O)(O)O)[C@@H](O)[C@H]1O [ADP] as the molecule, how does the X-ray crystal structure [1] read?
Answer: a ligand was clearly visible in the experimental electron density map

Question: Which “analytical size-exclusion chromatography (multimerization) and limited proteolys” value [2] does the source give for OC[C@H]1O[C@H](O[C@H]2[C@H](O)[C@@H](O)[C@@H](O[C@H]3[C@H](O)[C@@H](O)C(O)O[C@@H]3CO)O[C@@H]2CO)[C@H](O)[C@@H](O)[C@@H]1O (some centres unmarked) [maltotriose] here?
Answer: responded to its presence by multimerizing to the same extent

Question: What about the “limited proteolysis (proteinase K)” value [3] of the same molecule?
Answer: underwent the same maltotriose-induced conformational changes as MalT

Question: What about the “analytical size-exclusion chromatography (multimerization)” value [4] of the same molecule?
Answer: the four proteins were monomeric in the absence of the inducer, maltotriose

Question: And the “limited proteolysis (proteinase K)” value [5]?
Answer: underwent the same maltotriose-induced conformational changes as MalT

Question: And the “analytical size-exclusion chromatography (multimerization)” value [6]?
Answer: the four proteins were monomeric in the absence of the inducer, maltotriose

B1: His6-tagged MalT (Escherichia coli maltose system regulator), wild type (natural protein, E. coli, UniProt P06993 1-901, looked up)
chain: MLIPSKLSRPVRLDHTVVRERLLAKLSGANNFRLALITSPAGYGKTTLISQWAAGKNDIGWYSLDEGDNQQERFASYLIAAVQQATNGHCAICETMAQKRQYASLTSLFAQLFIELAEWHSPLYLVIDDYHLITNPVIHESMRFFIRHQPENLTLVVLSRNLPQLGIANLRVRDQLLEIGSQQLAFTHQEAKQFFDCRLSSPIEAAESSRICDDVSGWATALQLIALSARQNTHSAHKSARRLAGINASHLSDYLVDEVLDNVDLATRHFLLKSAILRSMNDALITRVTGEENGQMRLEEIERQGLFLQRMDDTGEWFCYHPLFGNFLRQRCQWELAAELPEIHRAAAESWMAQGFPSEAIHHALAAGDALMLRDILLNHAWSLFNHSELSLLEESLKALPWDSLLENPQLVLLQAWLMQSQHRYGEVNTLLARAEHEIKDIREDTMHAEFNALRAQVAINDGNPDEAERLAKLALEELPPGWFYSRIVATSVLGEVLHCKGELTRSLALMQQTEQMARQHDVWHYALWSLIQQSEILFAQGFLQTAWETQEKAFQLINEQHLEQLPMHEFLVRIRAQLLWAWARLDEAEASARSGIEVLSSYQPQQQLQCLAMLIQCSLARGDLDNARSQLNRLENLLGNGKYHSDWISNANKVRVIYWQMTGDKAAAANWLRHTAKPEFANNHFLQGQWRNIARAQILLGEFEPAEIVLEELNENARSLRLMSDLNRNLLLLNQLYWQAGRKSDAQRVLLDALKLANRTGFISHFVIEGEAMAQQLRQLIQLNTLPELEQHRAQRILREINQHHRHKFAHFDENFVERLLNHPEVPELIRTSPLTQREWQVLGLIYSGYSNEQIAGELEVAATTIKTHIRNLYQKLGVAHRQDAVQHAQQLLKMMGYGV
notes: MalT, E. coli, His-tagged version encoded by pOM206 (pET24a(+) derivative); Purified in two buffers (with ATP/KCl; or K3 citrate without nucleotide) to serve as control for the variants; Details of the plasmid are in the Supplementary Materials and Methods; also called wt MalT; wild-type MalT; source: E. coli pop8012 (a BL21 ΔmalT strain) with pOM206, purified (nickel-agarose chromatography, …)
Question: Does B1 bind [7]?
Answer: binds

B2: His6-tagged MalT^M96C,H562C (natural protein, E. coli, UniProt P06993 1-901, looked up)
chain: B1 chain with M96C, H562C
notes: MalT, E. coli, His-tagged, pOM206 derivative; source: E. coli pop8012 (a BL21 ΔmalT strain) with a pOM206 derivative, purified (nickel-agarose chromatography, Superdex 200)
Question: Does B2 bind [7]?
Answer: binds

B3: His6-tagged MalT^M96C (natural protein, E. coli, UniProt P06993 1-901, looked up)
chain: B1 chain with M96C
notes: as for B2
Question: Does B3 bind [7]?
Answer: binds

B4: His6-tagged MalT^H562C (natural protein, E. coli, UniProt P06993 1-901, looked up)
chain: B1 chain with H562C
notes: as for B2
Question: Does B4 bind [7]?
Answer: binds

B5: His6-tagged MalT^M96T (natural protein, E. coli, UniProt P06993 1-901, looked up)
chain: B1 chain with M96T
notes: MalT, E. coli, His-tagged, pOM206 derivative; About 20% aggregated after purification without nucleotide; concentration was corrected for this; also called M96T variant
Question: Does B5 bind [8]?
Answer: binds
